Biological target: cloned human glucagon receptor (Homo sapiens, UniProt P47871)
Assay: Glucagon Receptor (hGlucR) Binding Assay
Procedure: This plasmid DNA was transfected into 293 HEK cells and selec ted with 200 ug/mL Hygromycin.
Crude plasma membranes are prepared using cells from suspension culture. The cells are lysed on ice in hypotonic buffer containing 25 mM Tris HCL, pH 7.5, 1 mM MgCl2, DNAsel, 20 u/mL, and Roche Complete Inhibitors-without EDTA. The cell suspension is homogenized with a glass dounce homogenizer using a Teflon pestle for 25 strokes. The homogenate is centrifuged at 4° C. at 1800×g for 15 mins. The supernate is collected and the pellet is resuspended in hypotonic buffer and rehomogenized. The mixture is centrifuged at 1800×g for 15 mins. The second supernate is combined with the first supernate. The combined supernates are recentrifuged at 1800×g for 15 mins to clarify. The clarified supernate is transferred to high speed tubes and centrifuged at 25000×g for 30 minutes at 4° C. The membrane pellet is resuspended in homogenization buffer and stored as frozen aliquots at −80° C. freezer until needed.
The specific activity is 2200 Ci/mmol.
The binding buffer contains 25 mM Hepes, pH 7.4, 2.5 mM CaCl2, 1 mM MgCl2, 0.1% fatty acid free BSA, (ICN), 0.003% tween-20, and Roche Complete Inhibitors without EDTA. […] Test compounds are dissolved in DMSO and serially diluted in DMSO. […] Plates are read with a MicroBeta after 14 hours of settling time at room temp. […]

cloned human glucagon receptor, sequence (P47871 26-477): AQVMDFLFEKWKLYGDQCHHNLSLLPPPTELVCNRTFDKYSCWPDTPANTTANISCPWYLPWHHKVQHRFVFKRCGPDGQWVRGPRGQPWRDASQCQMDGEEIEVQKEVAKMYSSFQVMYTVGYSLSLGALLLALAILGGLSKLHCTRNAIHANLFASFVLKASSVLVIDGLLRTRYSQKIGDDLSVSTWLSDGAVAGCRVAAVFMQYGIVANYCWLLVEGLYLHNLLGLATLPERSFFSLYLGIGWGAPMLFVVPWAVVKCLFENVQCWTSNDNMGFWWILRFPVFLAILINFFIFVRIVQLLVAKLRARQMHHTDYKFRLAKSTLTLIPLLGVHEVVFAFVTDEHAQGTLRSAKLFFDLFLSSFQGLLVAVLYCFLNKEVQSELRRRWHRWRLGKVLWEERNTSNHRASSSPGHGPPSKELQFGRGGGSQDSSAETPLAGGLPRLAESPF

| Structure (SMILES) | Ki [nM] |
| --- | --- |
| CCC(COc1ccc(C(=O)NCCC(=O)O)cc1)c1ccc(-c2ccc(C(F)(F)F)cc2)cc1 (racemic) | 951 |
| CC(Oc1ccc(C(=O)NCCC(=O)O)cc1)c1ccc(-c2ccc(C(F)(F)F)cc2)nc1 (racemic) | 801 |

From patent US7989457B2 (Eli Lilly and Company, priority 2004, dated 2011)
